Measurements reported in ChEMBL document CHEMBL1201862, “PubChem BioAssay data set” (2004).
The source made the active and inactive calls.

Tests used:
[1] = off-target signal loss in HeLa-CEM21 co-culture – HeLa F-luc CTL cells, cherry-picked, counter-screen for HIV-1 Env fusion inhibitor project, dose response (AID 652040); assay type: functional, cell-based;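 further: potency for signal decrease marking cytotoxic or nonspecific inhibition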
[2] = biological target: Scavenger receptor class B member 1 (Mus musculus, UniProt Q61009); assay: mouse SR-BI DiI-HDL uptake blockers – ldlA[mSR-BI] cells, fluorescence, cherry pick, dose response (AID 493194); assay type: functional, cell-based;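 further: cellular uptake of fluorescent DiI-labeled HDL measured as cell fluorescence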
Sequence of Scavenger receptor class B member 1 (Q61009 whole entry): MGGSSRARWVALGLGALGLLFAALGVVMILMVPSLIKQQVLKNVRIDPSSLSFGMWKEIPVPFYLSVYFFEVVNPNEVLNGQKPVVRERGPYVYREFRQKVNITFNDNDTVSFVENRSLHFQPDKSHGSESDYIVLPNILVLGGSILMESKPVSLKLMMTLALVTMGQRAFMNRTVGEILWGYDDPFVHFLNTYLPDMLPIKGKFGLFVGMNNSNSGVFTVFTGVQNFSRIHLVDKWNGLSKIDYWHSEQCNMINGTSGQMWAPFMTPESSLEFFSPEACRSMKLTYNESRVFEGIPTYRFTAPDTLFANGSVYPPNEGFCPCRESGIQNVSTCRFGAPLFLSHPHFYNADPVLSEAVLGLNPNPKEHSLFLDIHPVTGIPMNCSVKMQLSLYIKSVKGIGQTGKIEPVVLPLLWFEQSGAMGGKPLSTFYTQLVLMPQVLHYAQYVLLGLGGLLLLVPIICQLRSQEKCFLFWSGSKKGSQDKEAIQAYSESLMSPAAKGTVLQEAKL

[3] = HGIII-sPLA2 enzyme inhibition potency – biochemical, QFRET, IC50, dose response (AID 743457);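 further: green fluorescence rise as the enzyme cleaves BODIPY PC-A2 in liposomes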
[4] = biological target: T1, Short transient receptor potential channel 4 (Mus musculus, UniProt Q9QUQ5); assay: block of DAMGO-driven TRPC4 calcium entry – cell-based, HEK293 TRPC4/mu-opioid, Fluo-4 calcium, dose response (AID 434942); assay type: functional;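 further: potency of inhibitors blocking the TRPC4 calcium response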
T1 sequence (Q9QUQ5 whole entry): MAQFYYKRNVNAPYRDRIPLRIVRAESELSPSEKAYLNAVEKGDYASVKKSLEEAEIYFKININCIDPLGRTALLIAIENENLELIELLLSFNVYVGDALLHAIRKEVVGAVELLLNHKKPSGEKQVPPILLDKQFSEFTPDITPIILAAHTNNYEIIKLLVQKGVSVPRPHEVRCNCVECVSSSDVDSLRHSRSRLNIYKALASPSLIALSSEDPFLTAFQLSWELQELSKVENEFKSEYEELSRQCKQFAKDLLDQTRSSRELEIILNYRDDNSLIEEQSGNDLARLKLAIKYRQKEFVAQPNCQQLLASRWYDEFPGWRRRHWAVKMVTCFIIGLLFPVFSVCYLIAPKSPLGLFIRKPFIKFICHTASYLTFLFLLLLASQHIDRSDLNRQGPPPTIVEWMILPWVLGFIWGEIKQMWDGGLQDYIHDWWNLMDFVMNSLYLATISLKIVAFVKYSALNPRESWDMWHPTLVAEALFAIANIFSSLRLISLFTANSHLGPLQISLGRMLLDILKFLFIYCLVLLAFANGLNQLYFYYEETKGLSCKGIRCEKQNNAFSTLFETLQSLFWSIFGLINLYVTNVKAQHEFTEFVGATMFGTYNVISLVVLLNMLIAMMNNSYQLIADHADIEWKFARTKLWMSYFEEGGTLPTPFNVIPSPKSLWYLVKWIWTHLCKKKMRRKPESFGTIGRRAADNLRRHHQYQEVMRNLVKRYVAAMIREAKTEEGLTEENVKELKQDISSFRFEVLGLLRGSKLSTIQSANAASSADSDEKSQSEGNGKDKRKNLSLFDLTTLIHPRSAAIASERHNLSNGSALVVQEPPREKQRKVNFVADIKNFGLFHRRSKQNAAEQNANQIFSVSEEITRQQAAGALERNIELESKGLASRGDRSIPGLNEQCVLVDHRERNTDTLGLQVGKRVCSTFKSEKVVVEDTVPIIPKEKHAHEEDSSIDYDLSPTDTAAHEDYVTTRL

[5] = biological target: DNA repair protein RAD52 homolog (Homo sapiens, UniProt P43351); assay type: functional, biochemical
Sequence of DNA repair protein RAD52 homolog (P43351 whole entry): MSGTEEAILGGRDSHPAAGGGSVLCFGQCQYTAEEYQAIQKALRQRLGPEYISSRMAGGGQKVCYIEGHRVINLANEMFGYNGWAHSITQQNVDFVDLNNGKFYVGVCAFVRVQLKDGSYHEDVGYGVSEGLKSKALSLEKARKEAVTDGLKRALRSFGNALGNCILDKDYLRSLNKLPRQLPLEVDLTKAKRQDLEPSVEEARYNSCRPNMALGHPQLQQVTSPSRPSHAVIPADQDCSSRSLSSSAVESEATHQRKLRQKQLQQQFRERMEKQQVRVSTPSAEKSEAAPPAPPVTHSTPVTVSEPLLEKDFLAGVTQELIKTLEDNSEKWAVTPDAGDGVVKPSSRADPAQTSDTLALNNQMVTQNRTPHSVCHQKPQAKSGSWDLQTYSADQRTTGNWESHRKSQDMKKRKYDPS

CAAX prenyl protease 1 = CAAX prenyl protease 1 (Saccharomyces cerevisiae S288c, UniProt P47154); assay: yeast CAAX protease Ste24 inhibition – biochemical, S. cerevisiae, plate reader, cherry-pick, dose response (AID 488815)
Sequence of CAAX prenyl protease 1 (P47154 whole entry): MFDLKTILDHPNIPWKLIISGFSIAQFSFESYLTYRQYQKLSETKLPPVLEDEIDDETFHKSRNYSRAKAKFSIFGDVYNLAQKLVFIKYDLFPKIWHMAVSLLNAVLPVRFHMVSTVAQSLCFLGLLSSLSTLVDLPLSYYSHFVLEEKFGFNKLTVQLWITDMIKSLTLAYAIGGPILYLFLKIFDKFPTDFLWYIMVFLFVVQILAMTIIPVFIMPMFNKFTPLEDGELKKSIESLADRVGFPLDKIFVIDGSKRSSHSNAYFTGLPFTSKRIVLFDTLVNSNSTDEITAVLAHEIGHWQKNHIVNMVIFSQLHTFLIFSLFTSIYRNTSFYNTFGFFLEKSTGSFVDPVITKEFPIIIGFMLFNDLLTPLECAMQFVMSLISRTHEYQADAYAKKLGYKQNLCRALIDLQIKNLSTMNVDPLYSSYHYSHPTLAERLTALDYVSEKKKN

[6] = A cytotoxicity screen of small molecule inhibitors of the PhoP region in Salmonella typhi identified in the primary screen. [Related pubchem assays: 1850, 1864, 1985 ]; assay type: functional
[7] = biological target: T2, DNA repair and recombination protein RAD54-like (Homo sapiens, UniProt Q92698); assay: RAD54 Holliday junction migration blockers – biochemical, fluorescence, cherry-picked samples, dose series, confirmation (AID 651657); assay type: functional
T2 sequence (Q92698 whole entry): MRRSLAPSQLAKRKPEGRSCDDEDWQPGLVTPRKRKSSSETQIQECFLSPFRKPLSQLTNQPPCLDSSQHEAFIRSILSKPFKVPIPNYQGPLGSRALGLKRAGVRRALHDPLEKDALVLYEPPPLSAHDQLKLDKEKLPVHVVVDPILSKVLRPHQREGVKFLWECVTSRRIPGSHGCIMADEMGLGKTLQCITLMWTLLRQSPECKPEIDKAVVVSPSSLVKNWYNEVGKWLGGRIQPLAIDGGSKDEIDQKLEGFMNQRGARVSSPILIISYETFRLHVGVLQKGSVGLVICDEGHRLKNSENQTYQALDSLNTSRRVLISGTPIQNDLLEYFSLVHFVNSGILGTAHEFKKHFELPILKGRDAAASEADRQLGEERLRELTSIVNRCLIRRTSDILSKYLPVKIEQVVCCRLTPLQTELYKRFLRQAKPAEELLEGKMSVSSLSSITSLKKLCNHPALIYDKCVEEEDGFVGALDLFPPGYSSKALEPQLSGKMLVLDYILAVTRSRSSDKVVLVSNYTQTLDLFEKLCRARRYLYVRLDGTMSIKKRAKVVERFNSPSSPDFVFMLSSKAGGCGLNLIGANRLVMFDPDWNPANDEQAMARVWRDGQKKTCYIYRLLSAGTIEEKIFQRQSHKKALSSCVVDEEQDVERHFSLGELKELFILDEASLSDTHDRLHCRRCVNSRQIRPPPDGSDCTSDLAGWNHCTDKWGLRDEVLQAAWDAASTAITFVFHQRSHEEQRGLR

SUMO-activating enzyme = SUMO-activating enzyme (Homo sapiens, UniProt Q9UBT2); assay: blockers of UBC9-mediated SUMO conjugation – biochemical, AlphaScreen, SUMOylation inhibitor project, confirmation (AID 2018); assay type: functional
Sequence of SUMO-activating enzyme (Q9UBE0 whole entry): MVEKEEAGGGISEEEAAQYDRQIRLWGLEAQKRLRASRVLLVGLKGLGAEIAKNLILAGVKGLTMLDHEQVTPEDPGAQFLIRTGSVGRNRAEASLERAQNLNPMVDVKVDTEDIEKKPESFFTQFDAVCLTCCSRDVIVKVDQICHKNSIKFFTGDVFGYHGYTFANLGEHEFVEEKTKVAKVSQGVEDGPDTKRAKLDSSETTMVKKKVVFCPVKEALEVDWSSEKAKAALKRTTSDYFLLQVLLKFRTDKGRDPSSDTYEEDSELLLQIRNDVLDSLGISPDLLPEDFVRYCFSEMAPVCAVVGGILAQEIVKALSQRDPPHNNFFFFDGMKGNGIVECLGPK
Sequence of SUMO-activating enzyme (Q9UBT2 whole entry): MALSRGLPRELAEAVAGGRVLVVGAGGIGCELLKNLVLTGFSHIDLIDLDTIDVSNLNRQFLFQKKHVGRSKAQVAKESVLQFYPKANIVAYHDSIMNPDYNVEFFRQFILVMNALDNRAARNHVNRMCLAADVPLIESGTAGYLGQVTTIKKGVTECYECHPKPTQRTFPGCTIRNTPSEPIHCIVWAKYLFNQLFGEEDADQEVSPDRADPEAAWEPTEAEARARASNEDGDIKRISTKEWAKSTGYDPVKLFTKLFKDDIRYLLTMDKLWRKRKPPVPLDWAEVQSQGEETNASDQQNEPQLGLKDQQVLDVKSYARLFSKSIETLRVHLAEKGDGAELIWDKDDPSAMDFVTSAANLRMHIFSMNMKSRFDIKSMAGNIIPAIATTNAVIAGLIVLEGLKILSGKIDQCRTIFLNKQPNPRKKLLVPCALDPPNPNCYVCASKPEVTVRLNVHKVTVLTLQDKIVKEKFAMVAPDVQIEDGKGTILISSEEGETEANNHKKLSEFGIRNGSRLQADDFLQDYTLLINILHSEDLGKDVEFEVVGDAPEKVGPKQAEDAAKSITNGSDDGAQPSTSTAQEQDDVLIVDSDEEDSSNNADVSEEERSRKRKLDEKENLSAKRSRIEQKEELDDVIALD

INS1 = assay: INS-1E survival protection against cytokine death – cell-based, luminescence, retest, dose response (AID 449756); assay type: functional; settings: Rattus norvegicus;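 further: cell death triggered by IL-1 beta plus TNF-alpha plus IFN-gamma mixture; protective hits raise ATP signal compared with cytokine alone wells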
[8] = biological target: T3, Intestinal-type alkaline phosphatase (Homo sapiens, UniProt P09923); assay: activation of human intestinal alkaline phosphatase – biochemical, luminescent, uHTS hits, set 2, dose response (AID 488817); assay type: functional;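 further: potency of activators that raise enzyme activity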
T3 sequence (P09923 whole entry): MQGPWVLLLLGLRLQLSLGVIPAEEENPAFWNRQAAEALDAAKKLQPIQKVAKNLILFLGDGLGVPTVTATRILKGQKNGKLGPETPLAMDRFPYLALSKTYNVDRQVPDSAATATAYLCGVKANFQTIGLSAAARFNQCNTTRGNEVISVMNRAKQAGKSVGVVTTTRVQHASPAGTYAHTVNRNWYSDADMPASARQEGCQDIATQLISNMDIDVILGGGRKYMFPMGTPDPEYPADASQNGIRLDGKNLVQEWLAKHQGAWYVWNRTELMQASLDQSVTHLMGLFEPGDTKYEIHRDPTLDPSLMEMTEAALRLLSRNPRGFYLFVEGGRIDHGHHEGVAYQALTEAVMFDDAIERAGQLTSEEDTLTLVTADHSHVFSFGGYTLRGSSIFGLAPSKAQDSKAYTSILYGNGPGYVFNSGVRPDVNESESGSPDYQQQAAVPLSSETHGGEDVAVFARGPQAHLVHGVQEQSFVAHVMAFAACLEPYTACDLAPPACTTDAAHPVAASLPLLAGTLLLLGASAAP

cells [9] = assay type: functional, cell-based
[10] = biological target: T3, Intestinal-type alkaline phosphatase; assay: human intestinal alkaline phosphatase activators, dose response, biochemical, luminescence, uHTS hits (AID 463120); assay type: functional
[11] = biological target: T4, Alkaline phosphatase, tissue-nonspecific isozyme (Homo sapiens, UniProt P05186); assay: activation of tissue-nonspecific alkaline phosphatase – biochemical, TNAP isozyme, human IAP uHTS hits, selectivity assay for human IAP activator project, dose response (AID 488886); assay type: functional;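 further: potency of compounds raising TNAP activity as a selectivity check on IAP activators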
T4 sequence (P05186 whole entry): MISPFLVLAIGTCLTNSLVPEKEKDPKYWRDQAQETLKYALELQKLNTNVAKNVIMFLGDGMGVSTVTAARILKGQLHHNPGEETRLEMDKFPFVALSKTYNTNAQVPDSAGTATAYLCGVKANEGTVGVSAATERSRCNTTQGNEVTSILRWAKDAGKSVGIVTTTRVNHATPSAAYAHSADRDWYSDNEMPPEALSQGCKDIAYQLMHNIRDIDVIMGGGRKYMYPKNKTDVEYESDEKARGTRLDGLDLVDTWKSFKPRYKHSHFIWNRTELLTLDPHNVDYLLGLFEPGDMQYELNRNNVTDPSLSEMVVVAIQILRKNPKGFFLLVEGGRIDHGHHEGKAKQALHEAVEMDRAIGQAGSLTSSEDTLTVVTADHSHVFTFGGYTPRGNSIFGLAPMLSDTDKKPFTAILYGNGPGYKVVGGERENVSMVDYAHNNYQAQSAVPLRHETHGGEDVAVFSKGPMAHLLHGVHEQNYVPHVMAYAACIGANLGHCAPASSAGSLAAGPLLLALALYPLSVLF

[12] = MIN6 cell viability loss – mouse insulinoma, cytotoxicity control, dose response (AID 2122); assay type: functional;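 further: confirmatory high-throughput counterscreen run to flag cytotoxic compounds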
[13] = decrease of insulin promoter-GFP reporter – imaging, high-content screening, mouse beta cells (AID 1628); assay type: functional; settings: MIN6
cells [14] = assay type: functional, cell-based; remark: listed apart in the source
[15] = NIH-3T3 fibroblast cytotoxicity, dose response, cytotoxicity control, cell-based, fluorescence, Alamar Blue, secondary assay (AID 2327); assay type: functional;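 further: NIH-3T3 mouse fibroblasts cultured with fluconazole at 8 µg/mL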
[16] = Trypanosoma cruzi growth suppression in host cells – NIH3T3 host cells, beta-gal luminescence, confirmation (AID 2044); assay type: functional, cell-based;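 further: intracellular parasites grown in NIH/3T3 mouse fibroblasts as host cells; luminescent beta-galactosidase reporter signal from transgenic T. cruzi replicating inside host cells; inhibitors lower the luminescence signal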
[17] = NIH3T3 cell viability loss – ATP luminescence, mouse fibroblasts, counter-screen, dose response (AID 2010); assay type: functional, cell-based;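 further: cells exposed to compound for about 90 hours before reading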
[18] = biological target: Intestinal-type alkaline phosphatase (Mus musculus, UniProt P24822); assay: PubChem AID 488874; assay type: functional
Sequence of Intestinal-type alkaline phosphatase (Mus musculus, UniProt P24822) (P24822 whole entry): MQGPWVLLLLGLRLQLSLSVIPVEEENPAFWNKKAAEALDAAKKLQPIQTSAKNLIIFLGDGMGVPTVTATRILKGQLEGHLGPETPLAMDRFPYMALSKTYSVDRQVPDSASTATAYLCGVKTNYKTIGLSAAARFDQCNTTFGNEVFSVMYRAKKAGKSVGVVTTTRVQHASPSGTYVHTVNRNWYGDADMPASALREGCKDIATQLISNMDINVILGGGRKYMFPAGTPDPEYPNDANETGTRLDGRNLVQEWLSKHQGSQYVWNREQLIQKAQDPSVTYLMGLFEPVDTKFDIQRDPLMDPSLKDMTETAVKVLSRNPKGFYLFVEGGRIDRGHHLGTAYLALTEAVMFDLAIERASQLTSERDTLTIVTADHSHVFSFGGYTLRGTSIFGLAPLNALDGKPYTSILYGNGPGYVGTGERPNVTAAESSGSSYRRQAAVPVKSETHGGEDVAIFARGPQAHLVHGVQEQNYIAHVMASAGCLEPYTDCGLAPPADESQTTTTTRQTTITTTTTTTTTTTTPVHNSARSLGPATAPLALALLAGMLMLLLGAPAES

[19] = fluconazole-exposed Candida albicans growth modulators – fluorescence, retest, confirmation (AID 2467); assay type: functional, cell-based

## CCOc1ccc2c(c1)-c1c(ssc1=S)C(C)(C)N2C(=O)c1ccco1
[1]
  AC50: 17.6 µM (active)
[2]
  AC50: 13.7 µM (active)
[3]
  IC50: 46.2 µM (inactive)

## Cc1ccc2nc3c(c(N)c2c1)CCN3C
[4]
  EC50: 2.37 µM (active)
[5]
  AC50: 15.4 µM (active)
CAAX prenyl protease 1
  AC50: 16.6 µM (active)
[6]
  EC50: > 50 µM (active)
[7]
  AC50: 21.7 µM (active)

## CCCCOc1ccc(/C=C/C(=O)Nc2ccc(C(N)=O)cc2)cc1
SUMO-activating enzyme
  IC50: 96.7 µM (active)

## COc1ccccc1Nc1nc(-c2c(C)[nH]c3ccccc23)cs1
[2]
  AC50: 19.4 µM (active)

## CCOc1ccc(/C=N/NC(=O)c2[nH]ncc2Br)c(O)c1
INS1
  AC50: 1.14 µM (active)
[8]
  EC50: 8.97 µM (active)
Cells [9]
  EC50: 191 µM (active)
[10]
  EC50: 6.69 µM (active)
[11]
  EC50: 11.5 µM (active)
[12]
  IC50: 3.4 µM (active)
[13]
  IC50: 3.83 µM (active)
Cells [14]
  EC50: 7.33 µM (active)
[15]
  EC50: 14.9 µM (active)
[16]
  EC50: 1.48 µM (active)
[17]
  EC50: 10.3 µM (active)
[18]
  IC50: 73.8 µM (active)
[19]
  EC50: > 38 µM (not active)
